The record followed here is US11786534B2 (TAIHO PHARMACEUTICAL CO., LTD., priority 2019, dated 2023).

The structures appear in SMILES notation.

Common to all, as to format: biochemical
For experiment [1], the target named is T1, human EGFR (L858R/C797S) (Homo sapiens, UniProt P00533, C797S/L858R).
T1 construct: purchased SignalChem
Description: Inhibitory activity against EGFR (L858R/C797S) kinase. The settings on record: Test Example 1, Table 5; ATP 4 μM, 90 minutes. The method, then:
4) Measurement of inhibitory activity against EGFR (L858R/C797S) kinase
The compounds of the present invention were measured for their inhibitory activity aeainst EGFR (L858R/C797S) kinase activity.
The materials, measurement procedures and data analysis method used in this test are stibstantially the same as those shown in the section “Measurement of inhibitory activity against EGFR (d746-750/C797S) kinase.” However, among the materials, the kinase protein used was a purified recombinant human EGFR (C797S/L858R) protein purchased from SignalChem. In the measurement procedures, the final concentration of ATP was set to 4 μM, and the incubation time for kinase reaction was set to 90 minutes. Finally, data analysis was conducted determine the IC50 value (nM) of each compound against EGFR (L858R/C797S).
In accordance with the same procedures as shown in 4) in Test Example 1, the compounds of the present invention were measured for their inhibitor activity against. EGFR (L858R/C797S) kinase activity.

The target in experiment [2] is T2, human EGFR (L858R/T790M/C797S) (Homo sapiens, UniProt P00533, C797S/L858R/T790M).
T2 construct: made in house; host or cells: Sf9 insect cells, baculovirus
Description: Inhibitory activity against EGFR (L858R/T790M/C797S) kinase. The note with it: Test Example 1, Table 3; ATP 0.5 μM. The method, then: 2) Measurement of inhibitory activity against EGFR (L858R/T790M/C797S) kinase
The compounds of the presein invention were measured for their inhibitory activity against EGFR (L858R/T790M/C797S) kinase activity.
The materials, measurement procedures and data analysis method used in this test are substantially the same as those shown in the section “Measurement of inhibitory activity against EGFR (d746-750/T790M/C797S) kinase.” However, among the materials, the kinase protein (SEQ ID NO: 2) used was prepared as follows: the cytoplasmic domain of human EGFR (L858R/T790M/C797S) fused at the amino terminal end with a GST tag was expressed in insect cells (Sf9) by the baculovirus expression system and then purified on a glutathione sepharose column. In the measurement procedures, the final concentration of ATP was set to 0.5 μM. Finally, data analysis was conducted to determine the IC50 value (nM) of each compound against EGFR (L858R/T790M/C797S).
In accordance with the same procedures as shown in 2) in Test Example 1, the compounds of the present invention were measured for their inhibitory activity against EGFR (L858R/T790M/C797S) kinase activity.

Experiment [3] has as its target T3, human EGFR (d746-750/C797S) (Homo sapiens, UniProt P00533, C797S/DEL746-750).
T3 construct: purchased SignalChem
Description: Inhibitory activity against EGFR (d746-750/C797S) kinase. The note with it: Test Example 1, Table 4; ATP 14 μM, 60 minutes. As to the method:
3) Measurement of inhibitory activity against EGFR (d746-750/C797S) kinase
The compounds of the present invention were measured for their inhibitory activity against EGFR (d746-750/C797S) kinase activity.
The materials, measurement procedures and data analysis method used in this test are substantially the same as those shown in the section “Measurement of inhibitory activity aiainst EGFR (d746-750/T790M/C797S) kinase.” However, among the materials, the kinase protein used was a purified recombinant human EGFR (d746-750/C797S) protein purchased from SignalChem, while the kinase reaction buffer used was 13.5 mM Tris (pH 7.5) containing 2 mM dithiothreitol and 0.009% Tween-20. In the measurement procedures, the final concentration of ATP was set to 14 μM, the final concentration of maganesium chloride was set to 20 mM, the final concentration of manganese chloride was set to 12.5 mM, the incubation time for kinase reaction was set to 60 minutes, and the final concentration of EDTA used to stop the kinase reaction was set to 40 mM. Finally, data analysis was conducted to determine to IC50 value (nM) of each compound against EGFR (d746-750/C797S).
In accordance with the same procedures as shown in 3) in Test Example 1, the compounds of the present invention were measured for their inhibitory activity against EGFR (d746-750/C797S) kinase activity.

Experiment [4] addresses T4, human EGFR (d746-750/T790M/C797S) (Homo sapiens, UniProt P00533, C797S/DEL746-750/T790M).
T4 construct: made in house; host or cells: Sf9 insect cells, baculovirus
Description: Inhibitory activity against EGFR (d746-750/T790M/C797S) kinase. The note with it: Test Example 1, Table 2; ATP 6 μM, 25° C., 120 minutes. The method, then:
1) Measurement of inhibitory activity against EGFR (d746-750/T790M/C797S) kinase
The compounds of the above examples and comparative examples were measured for their inhibitory activity against EGFR (d746-750/T790M/C797S) kinase activity. Among the materials required for measurement of this inhibitory activity, the kinase protein (SEQ ID NO: 1) used was prepared as follows: the cytoplasmic domain of human EGFR (d746-750/T790M/C797S) fused at the ammo terminal end with a glutathione-S-transferase (GST) tag was expressed M insect cells (Sf9) by the baculovirus expression system and then purified an a glutathione sepharose column. For use as a substrate peptide, a peptide biotinylated at the N-terminal end (biotin -EEPLYWSFPAKKK) was synthesized by reference to Perkin Elmer LabChip® series reagent FL-Peptide 22.
Procedures for measurement of the inhibitory activity are as follows. First, the compounds of the present invention were each dissolved in dimethyl sulfoxide (DMSO), and their serial dilutions were then prepared with DMSO. Secondly, each compound serial dilution (final concentration of DMSO during kinase reaction: 2.5%) or DMSO (final concentration: 2.5%) was mixed with a solution containing the substrate peptide (final concentration: 250 nM), magnesium chloride (final concentration: 10 mM), manganese chloride (final concentration: 10 mM) and ATP (final concentration: 6 μM) in a kinase reaction buffer (Carna Biosciences Inc., Japan), and the EGFR (d746-750/T790M/C797S) protein was further added thereto, followed by incubation at 25° C. for 120 minutes to cause kinase reaction. To the reaction solution, EDTA was added to give a final concentration of 24 mM to thereby stop the reaction, followed by addition of a phospholylated tyrosine detection solution containing europium-labeled anti-phosphorylated tyrosine antibody PT66 (Perkin Elmer) and SureLight APC-SA (Perkin Elmer). The reaction solution was allowed to stand at room temperature for 2 hours or longer. As a background, DMSO was used instead of each compound solution in .DMSO, and EDIA was added prior to the addition of the EGFR EGFR (d746-750/T790M/C797S) protein, followed by incubation at 25° C. for 120 minutes. The same detection solution was also added to this reaction solution, which was then allowed to stand for 2 hours or longer. Finally, all the test samples were measured with a PHERAstar FS reader (BMG LABTECH) for their fluorescence intensity at two wavelengths of 620 nm and 665 nm upon irradiation with an excitation light of 337 nm wavelength, and the ratio of fluorescence intensities at these two wavelengths was obtained as data for each compound.
Moreover, as control compounds, the above Comparative Example A (Example 3 in WO2013/118817) and Comparative Example B (Example 35 in WO2013/118817) known to have EGFR inhibitory activity were used.
In accordance with the same procedures as shown in 1) in Test Example 1, the compounds of the above examples were measured for their inhibitory activity against EGFR (d746-750/T790M/C797S) kinase activity.

The target of experiment [5] is T5, human EGFR (WT) (Homo sapiens, UniProt P00533).
T5 construct: purchased Carna Biosciences Inc., Japan
The experiment is described as follows: Inhibitory activity against EGFR (WT) kinase. The settings on record: Test Example 1, Table 6; ATP 1.5 μM. The method, then:
The compounds of the present invention were measured for their inhibitory activity nainst EGFR (WT) kinase activity.
The materials, measurement procedures and data analysis method used in this test. are substantially the same as those shown in the section “Measurement of inhibitory activity against EGFR (d746-750/T790M/C797S) kinase.” However, among the materials, the kinase protein used was a purified recombinant human EGFR (WT) purchased from Carna Biosciences Inc., Japan. In the measurement procedures, the final concentration of ATP was set to 1.5 μM. Finally, data analysis was conducted to determine the IC50 value (nM) of each compound against EGFR (WT).
In accordance with the same procedures as shown in 5) in Test Example 1, the compounds of the present invention were measured for their inhibitory activity against. EGFR (WT) kinase activity.

T1 sequence (P00533 25-1210 C797S/L858R): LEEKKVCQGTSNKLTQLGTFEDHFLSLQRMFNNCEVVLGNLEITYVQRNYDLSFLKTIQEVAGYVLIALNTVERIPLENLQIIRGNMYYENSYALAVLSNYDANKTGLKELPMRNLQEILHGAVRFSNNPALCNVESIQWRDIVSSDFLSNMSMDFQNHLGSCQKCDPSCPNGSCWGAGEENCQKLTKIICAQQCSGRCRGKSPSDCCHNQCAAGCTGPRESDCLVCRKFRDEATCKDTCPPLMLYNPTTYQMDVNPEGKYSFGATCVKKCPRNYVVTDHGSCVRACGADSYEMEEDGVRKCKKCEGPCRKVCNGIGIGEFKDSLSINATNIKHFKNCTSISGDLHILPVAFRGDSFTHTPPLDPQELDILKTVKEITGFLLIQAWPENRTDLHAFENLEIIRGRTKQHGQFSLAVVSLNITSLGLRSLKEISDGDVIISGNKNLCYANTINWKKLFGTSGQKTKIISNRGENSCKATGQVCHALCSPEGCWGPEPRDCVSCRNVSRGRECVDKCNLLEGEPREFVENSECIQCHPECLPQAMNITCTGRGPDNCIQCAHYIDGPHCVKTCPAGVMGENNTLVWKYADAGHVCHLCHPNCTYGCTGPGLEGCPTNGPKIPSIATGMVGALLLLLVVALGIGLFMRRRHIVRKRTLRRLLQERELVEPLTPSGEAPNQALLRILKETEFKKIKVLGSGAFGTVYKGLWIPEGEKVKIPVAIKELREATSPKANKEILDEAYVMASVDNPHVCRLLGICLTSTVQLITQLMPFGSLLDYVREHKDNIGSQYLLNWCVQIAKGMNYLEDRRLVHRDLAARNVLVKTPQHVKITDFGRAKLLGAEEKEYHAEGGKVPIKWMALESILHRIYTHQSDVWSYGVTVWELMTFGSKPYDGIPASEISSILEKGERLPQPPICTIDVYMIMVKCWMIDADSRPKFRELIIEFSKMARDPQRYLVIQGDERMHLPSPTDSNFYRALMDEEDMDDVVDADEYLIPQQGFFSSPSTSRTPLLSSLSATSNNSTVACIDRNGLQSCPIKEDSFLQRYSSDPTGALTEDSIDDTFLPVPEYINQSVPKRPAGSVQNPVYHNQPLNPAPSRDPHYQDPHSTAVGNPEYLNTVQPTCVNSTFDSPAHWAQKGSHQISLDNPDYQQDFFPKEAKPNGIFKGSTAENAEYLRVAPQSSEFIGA
T5 sequence (P00533 25-1210): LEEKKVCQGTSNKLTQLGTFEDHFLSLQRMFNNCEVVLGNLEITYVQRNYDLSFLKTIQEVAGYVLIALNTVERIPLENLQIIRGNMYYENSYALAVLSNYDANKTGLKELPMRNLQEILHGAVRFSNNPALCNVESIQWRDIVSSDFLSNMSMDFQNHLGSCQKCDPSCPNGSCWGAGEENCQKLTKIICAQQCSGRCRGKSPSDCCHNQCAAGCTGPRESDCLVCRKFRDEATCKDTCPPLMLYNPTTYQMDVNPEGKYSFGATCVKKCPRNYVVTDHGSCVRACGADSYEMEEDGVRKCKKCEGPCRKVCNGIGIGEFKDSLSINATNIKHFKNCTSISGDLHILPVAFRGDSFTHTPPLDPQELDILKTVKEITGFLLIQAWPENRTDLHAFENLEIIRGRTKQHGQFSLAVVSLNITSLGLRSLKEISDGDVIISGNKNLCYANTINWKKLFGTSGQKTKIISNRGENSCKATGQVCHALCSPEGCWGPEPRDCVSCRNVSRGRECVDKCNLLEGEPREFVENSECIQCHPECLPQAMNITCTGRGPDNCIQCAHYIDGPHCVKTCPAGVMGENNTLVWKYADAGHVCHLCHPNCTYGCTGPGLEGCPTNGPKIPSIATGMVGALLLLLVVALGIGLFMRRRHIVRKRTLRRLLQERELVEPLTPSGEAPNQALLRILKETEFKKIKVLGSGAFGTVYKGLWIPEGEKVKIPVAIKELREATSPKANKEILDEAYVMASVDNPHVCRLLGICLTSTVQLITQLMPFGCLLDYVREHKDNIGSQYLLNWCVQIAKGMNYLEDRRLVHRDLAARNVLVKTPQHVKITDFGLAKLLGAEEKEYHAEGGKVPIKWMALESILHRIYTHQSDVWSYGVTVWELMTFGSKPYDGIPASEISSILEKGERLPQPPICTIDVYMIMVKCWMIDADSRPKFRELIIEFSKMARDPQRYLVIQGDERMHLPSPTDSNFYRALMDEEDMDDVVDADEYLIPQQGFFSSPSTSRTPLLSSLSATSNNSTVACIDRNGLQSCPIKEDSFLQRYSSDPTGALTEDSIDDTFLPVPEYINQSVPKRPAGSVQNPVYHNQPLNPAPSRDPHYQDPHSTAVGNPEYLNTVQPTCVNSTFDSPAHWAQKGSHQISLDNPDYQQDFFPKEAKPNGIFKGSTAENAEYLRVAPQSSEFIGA
T4 sequence (P00533 with tags, fused parts or gaps DEL746-750/T790M/C797S): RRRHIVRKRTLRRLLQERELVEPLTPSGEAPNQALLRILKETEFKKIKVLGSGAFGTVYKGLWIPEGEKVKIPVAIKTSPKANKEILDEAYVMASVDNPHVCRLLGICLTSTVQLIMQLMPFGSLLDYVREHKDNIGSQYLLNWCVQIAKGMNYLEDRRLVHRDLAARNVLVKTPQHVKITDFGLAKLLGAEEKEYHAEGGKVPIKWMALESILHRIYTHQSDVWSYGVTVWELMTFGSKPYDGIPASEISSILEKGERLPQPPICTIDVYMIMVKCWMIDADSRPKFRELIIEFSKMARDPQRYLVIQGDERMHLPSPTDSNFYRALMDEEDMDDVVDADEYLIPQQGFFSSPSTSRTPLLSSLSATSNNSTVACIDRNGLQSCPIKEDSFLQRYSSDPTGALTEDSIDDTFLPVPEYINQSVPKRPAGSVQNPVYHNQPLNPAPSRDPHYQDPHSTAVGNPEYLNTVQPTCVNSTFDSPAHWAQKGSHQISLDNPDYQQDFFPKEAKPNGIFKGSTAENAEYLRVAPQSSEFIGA
T2 sequence (P00533 with tags, fused parts or gaps T790M/C797S/L858R): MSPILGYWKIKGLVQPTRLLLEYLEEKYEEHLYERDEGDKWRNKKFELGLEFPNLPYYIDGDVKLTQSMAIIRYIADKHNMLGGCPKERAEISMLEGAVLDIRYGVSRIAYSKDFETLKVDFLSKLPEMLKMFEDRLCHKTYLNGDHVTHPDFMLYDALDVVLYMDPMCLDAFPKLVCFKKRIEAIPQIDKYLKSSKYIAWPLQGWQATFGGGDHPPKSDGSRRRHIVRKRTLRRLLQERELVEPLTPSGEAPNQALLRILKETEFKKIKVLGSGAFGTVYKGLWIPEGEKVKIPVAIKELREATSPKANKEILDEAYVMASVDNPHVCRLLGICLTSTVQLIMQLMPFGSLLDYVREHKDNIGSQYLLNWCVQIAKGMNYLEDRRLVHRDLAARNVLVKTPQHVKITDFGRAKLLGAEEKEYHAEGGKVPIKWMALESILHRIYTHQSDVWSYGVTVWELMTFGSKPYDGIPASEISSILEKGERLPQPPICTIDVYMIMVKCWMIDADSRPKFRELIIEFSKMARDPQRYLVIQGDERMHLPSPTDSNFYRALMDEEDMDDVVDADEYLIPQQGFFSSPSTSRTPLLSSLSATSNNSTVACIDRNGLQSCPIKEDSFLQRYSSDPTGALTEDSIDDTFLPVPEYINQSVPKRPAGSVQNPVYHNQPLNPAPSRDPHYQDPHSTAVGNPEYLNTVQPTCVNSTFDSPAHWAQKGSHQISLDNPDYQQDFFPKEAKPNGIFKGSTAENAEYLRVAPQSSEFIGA
T3 sequence (P00533 with tags, fused parts or gaps DEL746-750/C797S): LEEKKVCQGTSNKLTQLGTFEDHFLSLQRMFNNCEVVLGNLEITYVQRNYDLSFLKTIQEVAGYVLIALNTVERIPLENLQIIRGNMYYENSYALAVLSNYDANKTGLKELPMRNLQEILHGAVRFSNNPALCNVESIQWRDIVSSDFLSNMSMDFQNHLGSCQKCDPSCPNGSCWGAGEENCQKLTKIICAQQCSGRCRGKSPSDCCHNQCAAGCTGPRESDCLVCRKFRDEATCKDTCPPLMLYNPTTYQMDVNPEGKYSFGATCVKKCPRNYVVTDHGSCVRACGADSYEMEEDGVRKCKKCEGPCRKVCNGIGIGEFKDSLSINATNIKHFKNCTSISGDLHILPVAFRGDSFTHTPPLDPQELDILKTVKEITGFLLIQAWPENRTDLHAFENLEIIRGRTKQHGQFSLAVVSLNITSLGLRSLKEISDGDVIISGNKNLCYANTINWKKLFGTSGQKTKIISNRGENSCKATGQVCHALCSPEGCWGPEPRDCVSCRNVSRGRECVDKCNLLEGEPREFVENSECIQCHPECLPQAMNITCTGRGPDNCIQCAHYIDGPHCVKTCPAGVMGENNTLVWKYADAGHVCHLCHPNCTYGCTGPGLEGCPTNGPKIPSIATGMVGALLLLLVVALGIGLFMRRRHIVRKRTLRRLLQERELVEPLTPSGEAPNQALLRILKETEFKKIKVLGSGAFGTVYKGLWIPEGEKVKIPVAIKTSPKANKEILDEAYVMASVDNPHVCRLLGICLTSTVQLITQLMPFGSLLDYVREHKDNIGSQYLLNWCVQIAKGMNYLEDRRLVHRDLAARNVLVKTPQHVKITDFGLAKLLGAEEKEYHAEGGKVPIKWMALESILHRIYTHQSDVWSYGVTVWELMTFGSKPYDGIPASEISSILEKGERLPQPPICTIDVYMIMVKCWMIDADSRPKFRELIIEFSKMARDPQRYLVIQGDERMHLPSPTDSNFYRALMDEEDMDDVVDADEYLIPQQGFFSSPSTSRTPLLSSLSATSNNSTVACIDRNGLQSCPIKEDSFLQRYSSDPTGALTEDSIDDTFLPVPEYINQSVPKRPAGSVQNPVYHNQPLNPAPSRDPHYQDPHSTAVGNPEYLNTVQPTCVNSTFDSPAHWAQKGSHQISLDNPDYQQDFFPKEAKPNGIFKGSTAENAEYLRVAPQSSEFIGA

On to `C#Cc1c(-c2cnc3ccccc3c2)c2c(N)ncnc2n1C12CCC(NC(=O)c3cnnn3C)(CC1)C2` [Example 22, N-(4-(4-Amino-6-ethynyl-5-(quinolin-3-yl)-7H-pyrrolo[2,3-d]pyrimidin-7-yl)bicyclo-[2.2.1]heptan-1-yl)-1-methyl-1H-1,2,3-triazole-5-carboxamide], for which the IC50 in experiment [1] was 0.35 nM; in experiment [2] it was 0.42 nM; in experiment [3], < 0.3 nM; in experiment [4], < 0.3 nM; in experiment [5], 0.55 nM.
Consider `C#Cc1c(-c2cnc3ccccc3c2)c2c(N)ncnc2n1C12CCC(NC(=O)c3cncn(C)c3=O)(CC1)C2` [Example 25, N-(4-(4-Amino-6-ethynyl-5-(quinolin-3-yl)-7H-pyrrolo[2,3-d]pyrimidin-7-yl)bicyclo-[2.2.1]heptan-1-yl)-1-methyl-6-oxo-1,6-dihydropyrimidine-5-carboxamide], for which the IC50 in experiment [1] is 0.59 nM; in experiment [2], 0.6 nM; in experiment [3] it was 0.4 nM; in experiment [4], < 0.3 nM; in experiment [5] it was 0.51 nM.
Regarding `C#Cc1c(-c2cnc3ccccc3c2)c2c(N)ncnc2n1C12CCC(NC(=O)c3ccnn3-c3ccccc3)(CC1)C2` [Example 26, N-(4-(4-Amino-6-ethynyl-5-(quinolin-3-yl)-7H-pyrrolo[2,3-d]pyrimidin-7-yl)bicyclo-[2.2.1]heptan-1-yl)-1-phenyl-1H-pyrazole-5-carboxamide], the IC50 in experiment [1] was 0.84 nM; in experiment [2], 0.62 nM; in experiment [3], 0.71 nM; in experiment [4], < 0.3 nM; in experiment [5], 2.1 nM.
Take `C#Cc1c(-c2cnc3ccccc3c2)c2c(N)ncnc2n1C12CCC(NC(=O)COC)(CC1)C2` [Example 28, N-(4-(4-Amino-6-ethynyl-5-(quinolin-3-yl)-7H-pyrrolo[2,3-d]pyrimidin-7-yl)bicyclo-[2.2.1]heptan-1-yl)-2-methoxyacetamide]: the IC50 in experiment [1] is 1.7 nM; in experiment [2], 1.1 nM; in experiment [3], 0.89 nM; in experiment [4] it was < 0.3 nM; in experiment [5], 3.2 nM.
The corresponding values for `C#Cc1c(-c2cnc3ccccc3c2)c2c(N)ncnc2n1C12CCC(NC(=O)c3cc(CF)nn3C)(CC1)C2` [Example 29, N-(4-(4-Amino-6-ethynyl-5-(quinolin-3-yl)-7H-pyrrolo[2,3-d]pyrimidin-7-yl)bicyclo-[2.2.1]heptan-1-yl)-3-(fluoromethyl)-1-methyl-1H-pyrazole-5-carboxamide] are 0.39 nM, 0.31 nM, 0.32 nM, < 0.3 nM and 0.62 nM.
For `C#Cc1c(-c2cnc3ccccc3c2)c2c(N)ncnc2n1C12CCC(NC(=O)c3cc(S(C)(=O)=O)ccn3)(CC1)C2` [Example 30, N-(4-(4-Amino-6-ethynyl-5-(quinolin-3-yl)-7H-pyrrolo[2,3-d]pyrimidin-7-yl)bicyclo-[2.2.1]heptan-1-yl)-4-(methylsulfonyl)picolinamide], in that order: 1.2 nM, 0.33 nM, 0.64 nM, < 0.3 nM and 1.9 nM.
The corresponding values for `C#Cc1c(-c2cnc3ccccc3c2)c2c(N)ncnc2n1C12CCC(NC(=O)c3cnccc3OC)(CC1)C2` [Example 31, N-(4-(4-Amino-6-ethynyl-5-(quinolin-3-yl)-7H-pyrrolo[2,3-d]pyrimidin-7-yl)bicyclo-[2.2.1]heptan-1-yl)-4-methoxynicotinamide] are 0.62 nM, 0.52 nM, 0.49 nM, < 0.3 nM and 1.5 nM.
For `C#Cc1c(-c2cnc3ccccc3c2)c2c(N)ncnc2n1C12CCC(NC(=O)c3cncc(C#N)c3)(CC1)C2` [Example 34, N-(4-(4-Amino-6-ethynyl-5-(quinolin-3-yl)-7H-pyrrolo[2,3-d]pyrimidin-7-yl)-bicyclo-[2.2.1]heptan-1-yl)-5-cyanonicotinamide], the IC50 in experiment [1] was 0.45 nM; in experiment [2] it was < 0.3 nM; in experiment [3] it was 0.46 nM; in experiment [4] it was < 0.3 nM; in experiment [5] it was 0.84 nM.

Broadly, the IC50 is the point on the concentration scale where inhibition reaches its midpoint. Read a high IC50 as weaker potency in that assay.
